Measurements from US11878973B2, “Bicyclic compounds and their uses” (NOVARTIS AG, priority 2021, dated 2024).
Where two headings read alike, the source gives them in different places.

Columns and labels:
WRN helicase = WRN helicase (Homo sapiens (Human), UniProt Q14191); experiment: In vitro enzymatic activity assay on WRN helicase (DNA dependent ATPase assay, ADP-Glo); assay type: biochemical
Text: An ATPase assay was set up to measure the DNA dependent ATP hydrolysis activity of WRN helicase. This assay was used also to assess the inhibition properties of compounds of the invention on DNA dependent WRN ATPase activity.
The core helicase motif of the WRN protein (aa N517-P1238) was produced for this assay (protein production as described above). […] The ADP-Glo assay kit (Promega, Madison, WI) allowing the quantification of ADP produced in ATP hydrolysis reactions was used for setting up this assay.
Time course experiments were first performed in order to determine the best enzymatic assay conditions (including buffer conditions, reaction time and concentrations of protein, ATP and DNA substrates). A typical reaction consists of 10 nM WRN protein, 0.2 nM FLAP26, and 300 micromolar ATP in the following assay buffer: 30 mM Tris pH7.5, 2 mM MgCl2, 0.02% BSA, 50 mM NaCl, 0.1% pluronic F127 prepared in DNAse free water. To evaluate the inhibition properties of compounds of the invention, serial dilutions were prepared in DMSO (10 half log dilutions from a 10 mM DMSO solution). […] The reaction was started by addition of 2.5 microliters of FLAP26 at 0.4 nM and incubated for 30 minutes at room temperature. The reaction was stopped with the addition of 5 microliters of the first ADP-Glo reagent and incubated for one hour to remove the excess amount of ATP. Afterwards, 10 microliters of ATP detection reagent was added and incubated for an additional hour before reading. Luminescence output was recorded using Tecan 1000 reader, with 5 minutes delay before reading. Each concentration of compound was tested in duplicates in the assay plate.
Following normalization of activity values for the wells to % inhibition (% inhibition=[(high control-sample)/(high control-low control)]×100), IC50 fitting was carried out from the duplicate determinations present on each plate according to [4]. Data analysis can also be carried out using commercially available software designed to derive IC50 values using 4-parameter fits (e.g. GraphPad Prism, XL fit). The reported IC50 values are the geometrical means of at least 2 independent replicates.

SW48 cells = experiment: Proliferation assay SW48 (CellTiterGlo, 96 hours)
DLD1-WRN-KO cells = experiment: Proliferation assay DLD1-WRN-KO (CellTiterGlo, 96 hours; off-target effects)
[1] = geometric means of at least 2 determinations, read-out: WRN ATPase Activity (IC50)
[2] = Homo sapiens, SW48, read-out: Proliferation Assay SW48 (GI50)
[3] = Homo sapiens, read-out: Proliferation Assay DLD1-WRN-KO (GI50)

WRN helicase, sequence (Q14191 517-1238): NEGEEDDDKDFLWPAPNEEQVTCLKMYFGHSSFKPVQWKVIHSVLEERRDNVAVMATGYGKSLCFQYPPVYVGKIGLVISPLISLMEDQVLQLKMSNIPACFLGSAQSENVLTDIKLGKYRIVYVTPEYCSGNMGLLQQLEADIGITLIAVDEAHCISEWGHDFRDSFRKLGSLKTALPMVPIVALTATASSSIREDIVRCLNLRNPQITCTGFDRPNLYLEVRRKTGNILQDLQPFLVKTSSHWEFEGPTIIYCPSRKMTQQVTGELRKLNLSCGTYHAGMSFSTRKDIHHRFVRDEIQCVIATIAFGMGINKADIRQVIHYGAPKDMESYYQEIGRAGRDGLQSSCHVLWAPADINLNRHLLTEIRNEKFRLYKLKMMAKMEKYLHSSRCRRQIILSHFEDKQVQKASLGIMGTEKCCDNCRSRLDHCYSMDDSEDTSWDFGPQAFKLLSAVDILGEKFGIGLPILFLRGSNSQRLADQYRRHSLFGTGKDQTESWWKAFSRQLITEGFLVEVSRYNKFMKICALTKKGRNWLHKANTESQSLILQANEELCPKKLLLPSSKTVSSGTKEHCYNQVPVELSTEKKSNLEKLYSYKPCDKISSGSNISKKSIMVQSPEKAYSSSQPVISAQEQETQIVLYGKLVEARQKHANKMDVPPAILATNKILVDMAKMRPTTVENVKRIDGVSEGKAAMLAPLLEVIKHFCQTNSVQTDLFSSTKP

| SMILES | IC50 (WRN helicase; [1]) [nM] | GI50 (SW48 cells; [2]) [nM] | GI50 (DLD1-WRN-KO cells; [3]) [nM] | GI50 (SW48 cells; read-out: Proliferation Assay SW48 (GI50), SW48 cell line, geometric means of at least 2 determinations) [nM] | GI50 (DLD1-WRN-KO cells; read-out: Proliferation Assay DLD1-WRN-KO (GI50), DLD1-WRN-KO cell line, geometric means of at least 2 determinations) [nM] | IC50 (WRN helicase; read-out: WRN ATPase inhibition (IC50)) [nM] | GI50 (SW48 cells; Homo sapiens, SW48, read-out: proliferation GI50 in SW48, as stated in text) [nM] | GI50 (DLD1-WRN-KO cells; Homo sapiens, DLD-1, read-out: proliferation GI50 in DLD1 WRN-KO) [nM] |
| --- | --- | --- | --- | --- | --- | --- | --- | --- |
| CCc1c(N2CCN(C(=O)c3ncccc3O)CC2)c(=O)n2nc(C3=CCOCC3)nc2n1CC(=O)Nc1ccc(C(F)(F)F)nc1Cl [Example 45, N-(2-chloro-6-(trifluoromethyl)pyridin-3-yl)-2-(2-(3,6-dihydro-2H-pyran-4-yl)-5-ethyl-6-(4-(3-hydroxypicolinoyl)piperazin-1-yl)-7-oxo-[1,2,4]triazolo[1,5-a]pyrimidin-4(7H)-yl)acetamide] | 130 | 80 | > 10000 | – | – | – | – | – |
| CCc1c(N2CCN(C(=O)c3nccc(Cl)c3O)CC2)c(=O)n2nc(C3=CCOCC3)nc2n1CC(=O)Nc1ccc(C(F)(F)F)c(F)c1C [Example 37, 2-(6-(4-(4-chloro-3-hydroxypicolinoyl)piperazin-1-yl)-2-(3,6-dihydro-2H-pyran-4-yl)-5-ethyl-7-oxo-[1,2,4]triazolo[1,5-a]pyrimidin-4(7H)-yl)-N-(3-fluoro-2-methyl-4-(trifluoromethyl)phenyl)acetamide] | 20 | 30 | > 10000 | – | – | – | – | – |
| CCc1c(N2CCN(C(=O)c3ncccc3O)CC2)c(=O)n2nc(N3CCCC3)nc2n1CC(=O)Nc1cc(Cl)c(C(F)(F)F)cc1C [Example 19, N-(5-chloro-2-methyl-4-(trifluoromethyl)phenyl)-2-(5-ethyl-6-(4-(3-hydroxypicolinoyl)piperazin-1-yl)-7-oxo-2-(pyrrolidin-1-yl)-[1,2,4]triazolo[1,5-a]pyrimidin-4(7H)-yl)acetamide] | 90 | 110 | 5000 | – | – | – | – | – |
| CCc1c(N2CCN(C(=O)c3ncccc3O)CC2)c(=O)n2nc(C3=CNCCC3)nc2n1CC(=O)Nc1ccc(C(F)(F)F)cc1C [Example 109, 2-(5-ethyl-6-(4-(3-hydroxypicolinoyl)piperazin-1-yl)-7-oxo-2-(1,4,5,6-tetrahydropyridin-3-yl)-[1,2,4]triazolo[1,5-a]pyrimidin-4(7H)-yl)-N-(2-methyl-4-(trifluoromethyl)phenyl)acetamide] | 1180 | 690 | > 10000 | – | – | – | – | – |
| CCc1c(N2CCN(C(=O)c3nccc(Cl)c3O)CC2)c(=O)n2nc(C3=CCOCC3)nc2n1CC(=O)Nc1ccc(C(F)(F)F)nc1Cl [Example 46, 2-(6-(4-(4-chloro-3-hydroxypicolinoyl)piperazin-1-yl)-2-(3,6-dihydro-2H-pyran-4-yl)-5-ethyl-7-oxo-[1,2,4]triazolo[1,5-a]pyrimidin-4(7H)-yl)-N-(2-chloro-6-(trifluoromethyl)pyridin-3-yl)acetamide] | 110 | 110 | > 10000 | – | – | – | – | – |
| CCc1c(N2CCN(C(=O)c3ncccc3O)CC2)c(=O)n2nc(N3CCOCC3)nc2n1CC(=O)Nc1cc(F)c(C(F)(F)F)cc1Cl [Example 7, N-(2-chloro-5-fluoro-4-(trifluoromethyl)phenyl)-2-(5-ethyl-6-(4-(3-hydroxypicolinoyl)piperazin-1-yl)-2-morpholino-7-oxo-[1,2,4]triazolo[1,5-a]pyrimidin-4(7H)-yl)acetamide] | 90 | 210 | > 10000 | – | – | – | – | – |

Second part, the compound after the results:

| IC50 (WRN helicase; [1]) [nM] | GI50 (SW48 cells; [2]) [nM] | GI50 (DLD1-WRN-KO cells; [3]) [nM] | GI50 (SW48 cells; read-out: Proliferation Assay SW48 (GI50), SW48 cell line, geometric means of at least 2 determinations) [nM] | GI50 (DLD1-WRN-KO cells; read-out: Proliferation Assay DLD1-WRN-KO (GI50), DLD1-WRN-KO cell line, geometric means of at least 2 determinations) [nM] | IC50 (WRN helicase; read-out: WRN ATPase inhibition (IC50)) [nM] | GI50 (SW48 cells; Homo sapiens, SW48, read-out: proliferation GI50 in SW48, as stated in text) [nM] | GI50 (DLD1-WRN-KO cells; Homo sapiens, DLD-1, read-out: proliferation GI50 in DLD1 WRN-KO) [nM] | SMILES |
| --- | --- | --- | --- | --- | --- | --- | --- | --- |
| 510 | 7940 | > 10000 | – | – | – | – | – | CCc1c(N2CCN(C(=O)c3ncccc3O)CC2)c(=O)n2nc(C3=CCNCC3)nc2n1CC(=O)Nc1ccc(C(F)(F)F)cc1C [Example 112, 2-(5-ethyl-6-(4-(3-hydroxypicolinoyl)piperazin-1-yl)-7-oxo-2-(1,2,3,6-tetrahydropyridin-4-yl)-[1,2,4]triazolo[1,5-a]pyrimidin-4(7H)-yl)-N-(2-methyl-4-(trifluoromethyl)phenyl)acetamide] |
| 70 | 90 | > 10000 | – | – | – | – | – | CCc1c(N2CCN(C(=O)c3nccc(F)c3O)CC2)c(=O)n2nc(N3CCOCC3)nc2n1CC(=O)Nc1ccc(C(F)(F)F)cc1Cl [Example 3, N-(2-chloro-4-(trifluoromethyl)phenyl)-2-(5-ethyl-6-(4-(4-fluoro-3-hydroxypicolinoyl)piperazin-1-yl)-2-morpholino-7-oxo-[1,2,4]triazolo[1,5-a]pyrimidin-4(7H)-yl)acetamide] |
| 80 | – | – | 60 | > 10000 | – | – | – | CCc1c(N2CCN(C(=O)c3ncccc3O)CC2)c(=O)n2nc(C3=CC[C@H](OC)CC3)nc2n1CC(=O)Nc1ccc(C(F)(F)F)cc1C (single isomer, unassigned) [Example 80b, ((R)-2-(5-ethyl-6-(4-(3-hydroxypicolinoyl)piperazin-1-yl)-2-(4-methoxycyclohex-1-en-1-yl)-7-oxo-[1,2,4]triazolo[1,5-a]pyrimidin-4(7H)-yl)-N-(2-methyl-4-(trifluoromethyl)phenyl)acetamide) or ((S)-2-(5-ethyl-6-(4-(3-hydroxypicolinoyl)piperazin-1-yl)-2-(4-methoxycyclohex-1-en-1-yl)-7-oxo-[1,2,4]triazolo[1,5-a]pyrimidin-4(7H)-yl)-N-(2-methyl-4-(trifluoromethyl)phenyl)acetamide)] |
| 80 | 90 | > 10000 | – | – | – | – | – | CCc1c(N2CCN(C(=O)c3ncnc(C)c3O)CC2)c(=O)n2nc(C3=CC[C@H](F)CO3)nc2n1CC(=O)Nc1ccc(C(F)(F)F)cc1Cl [Example 127, (S)—N-(2-chloro-4-(trifluoromethyl)phenyl)-2-(5-ethyl-2-(3-fluoro-3,4-dihydro-2H-pyran-6-yl)-6-(4-(5-hydroxy-6-methylpyrimidine-4-carbonyl)piperazin-1-yl)-7-oxo-[1,2,4]triazolo[1,5-a]pyrimidin-4(7H)-yl)acetamide] |
| 50 | 50 | > 10000 | – | – | 50 | 50 | > 10000 | CCc1c(N2CCN(C(=O)c3nccc(Cl)c3O)CC2)c(=O)n2nc(N3CCOCC3)nc2n1CC(=O)Nc1ccc(C(F)(F)F)cc1Cl [Example 1, 2-(6-(4-(4-chloro-3-hydroxypicolinoyl)piperazin-1-yl)-5-ethyl-2-morpholino-7-oxo-[1,2,4]triazolo[1,5-a]pyrimidin-4(7H)-yl)-N-(2-chloro-4-(trifluoromethyl)phenyl)acetamide] |
| 360 | 1210 | > 10000 | – | – | – | – | – | CCc1c(N2CCN(C(=O)c3ncccc3O)CC2)c(=O)n2nc(C3=CCCCN3)nc2n1CC(=O)Nc1ccc(C(F)(F)F)cc1C [Example 110, 2-(5-ethyl-6-(4-(3-hydroxypicolinoyl)piperazin-1-yl)-7-oxo-2-(1,4,5,6-tetrahydropyridin-2-yl)-[1,2,4]triazolo[1,5-a]pyrimidin-4(7H)-yl)-N-(2-methyl-4-(trifluoromethyl)phenyl)acetamide] |
| 80 | 370 | > 10000 | – | – | – | – | – | CCc1c(N2CCN(C(=O)c3ncccc3O)CC2)c(=O)n2nc(N3CCC[C@@H](F)C3)nc2n1CC(=O)Nc1ccc(C(F)(F)F)cc1C [Example 14a, (R)-2-(5-ethyl-2-(3-fluoropiperidin-1-yl)-6-(4-(3-hydroxypicolinoyl)piperazin-1-yl)-7-oxo-[1,2,4]triazolo[1,5-a]pyrimidin-4(7H)-yl)-N-(2-methyl-4-(trifluoromethyl)phenyl)acetamide] |
| 40 | 50 | > 10000 | – | – | – | – | – | CCc1c(N2CCN(C(=O)c3ncccc3O)CC2)c(=O)n2nc(C3=CCOCC3)nc2n1CC(=O)Nc1cc(F)c(C(F)(F)F)cc1C [Example 94, 2-(2-(3,6-dihydro-2H-pyran-4-yl)-5-ethyl-6-(4-(3-hydroxypicolinoyl)piperazin-1-yl)-7-oxo-[1,2,4]triazolo[1,5-a]pyrimidin-4(7H)-yl)-N-(5-fluoro-2-methyl-4-(trifluoromethyl)phenyl)acetamide] |
